Results: patent US7829331B2, “Use of urea-adjuvated polypeptides for diagnosis, prophylaxis and treatment” (priority 2002, dated 2010)

Assays:
[1] = test system: PBMC; test: Influence of urea on the vitality of PBMC (Trypan blue counting); type: cell-based
Description: In order to test the influence of urea on the cell vitality, PBMC, as described in Example 2, were purified from the heparinised whole blood of 3 healthy donors ([…]) and respectively 1×10^6 cells in four replicates in T-cell medium (RPMI 1640 with 5% human serum, 2 mM glutamine and 100 U/ml penicillin/100 μg/ml streptomycin (all components from PanSystems, Aidenbach)) was mixed with increasing concentrations of urea (0, 0.05, 0.1, 0.2, 0.3, 0.4, 0.8 or 1.6 mol/liter) and incubated in wells of a 48-well microtitre plate for 17 hours in an incubator with humidified atmosphere and 5% CO2 gassing at 37° C. An 8M urea stock solution which was mixed with 2M NaCl and 2 mM DTE was used for these experiments. The cells were then resuspended in the cultivation formulation by repeatedly pipetting the medium on and off and the total number of cells and the ratio of the living to dead cells was determined using a Neubauer “improved” counting chamber after staining with a Trypan blue solution (0.5% w/v).

[2] = test system: PBMC; test: IFN-γ ELIspot of PBMC incubated with urea; type: cell-based, human; settings: 24 hours; for IFN-γ secretion from PBMCs: donor one
Description: Furthermore, it should be clarified by ELIspot analyses whether urea in populations of purified PBMCs triggers the secretion of cytokines, especially IFN-γ. For this purpose, 96-well nitrocellulose-coated microtitre plates, as described in detail in Example 2, were coated with a monoclonal anti-human IFN-γ antibody (Hölzl, Cologne) (5 μg/ml in PBS) and incubated overnight at 4° C. The antibody solution was pipetted off and the plates were washed four times using 200 μl PBS/formulation in each case. In a following step non-specific binding sites were blocked by adding 200 μl of blocking medium in each case (RPMI with 10% FCS) during a one-hour incubation at 37° C.
PBMC of a healthy donor ([…]) were taken up in a concentration of respectively 2×10^5 purified PBMC/150 μL in T-cell medium containing different urea concentrations (0, 0.05, 0.1, 0.2, 0.3, 0.4, 0.8, and 1.6 mol/liter) (5 replicates each) and the stimulation formulations were incubated for 24 hours in an incubator with a humidified atmosphere with 5% CO2 gassing at 37° C. An 8M urea stock solution which was mixed with 2M NaCl and 2 mM DTE was used for these experiments. The cell suspension was then drawn off and any cells still adhering were removed by washing six times (in each case 200 μl PBS with 0.1% Tween 20, 3 min incubation with washing buffer in each case). The secondary biotinylated antibody (1 μg/ml in PBS, 100 μl/formulation in each case) was then added; the plates were incubated for 2 hours at RT, then washed (6 times, 200 μl PBS/formulation in each case) and incubated for 1 hour with a streptavidin alkaline phosphatase (AP) conjugate (1 μg/ml in PBS; 100 μl/formulation in each case; Hölzl, Cologne). After a last washing step (6 times 200 μl PBS/formulation in each case), the colour reaction took place by adding the enzyme substrate NBT/BCIP (Boehringer, Mannheim). For this purpose a staining solution was prepared [200 μl NBT/BCIP-stock solution to 10 ml staining buffer (0.1 M tris-buffer, pH 9.5 with 0.05 M MgCl2, 0.1 M NaCl)] and 100 μl/formulation was used in each case.
After 10 min the calorimetric reaction was stopped by washing the plates with deionised water (Biosys 2000, BioSys, Karben).

[3] = test system: rabbit; test: Immunisation of a rabbit with urea-adjuvated BZLF1 polypeptide, serum tested in the immunoblot; type: in vivo; settings: intramuscular, 8M urea
Description: In order to test the suitability of urea-adjuvated BZLF-1 polypeptide, 30 μg of BZLF1 polypeptide in 8M urea was adjuvated with Hunters Titermax as specified by the manufacturer (Sigma) and administered intramuscularly to a rabbit. The animal was re-immunised with the same immunogen 4 and 8 week as after the basic immunisation. After a further 3 weeks, blood was taken from the animal and the serum obtained therefrom was tested in different dilutions (1:2000; 1:10000 and 1:50000) in the immunoblot for the presence of BZLF1 specific antibodies. For this purpose BZLF1 polypeptide produced recombinantly in E. coli in various concentrations (20 ng, 100 ng and 500 ng) was separated in a 12.5% SDS gel and the proteins were then transferred onto nitrocellulose. After the protein transfer the still-free protein binding sites on the nitrocellulose were saturated by incubating with a 5% solution of skimmed milk powder in TBS (500 mM NaCl, 25 mM Tris pH 7.5), shaking slightly. The Blot was then washed four times with TTBS for at least 10 min before it was incubated for 1 to 12 hours with the corresponding dilution of the rabbit serum in TBS. […]

## NC(N)=O [urea]
[1]
  number of dead cells: significantly increased number of dead cells
[1]; donor one, urea 0.05 mol/liter, 17 hours
  Living/dead: 2.2
[1]; donor one, urea 0.1 mol/liter, 17 hours
  Living/dead: 55
[1]; donor one, urea 0.2 mol/liter, 17 hours
  Living/dead: 3.6
[1]; donor one, urea 0.3 mol/liter, 17 hours
  Living/dead: 1.8
[1]; donor one, urea 0.4 mol/liter, 17 hours
  Living/dead: 0.2
[1]; donor one, urea 0.8 mol/liter, 17 hours
  Living/dead: 0.04
[1]; donor one, urea 1.6 mol/liter, 17 hours, 0 = exclusively dead cells
  Living/dead: 0
[1]; donor three, urea 0.05 mol/liter, 17 hours
  Living/dead: 11.7
[1]; donor three, urea 0.1 mol/liter, 17 hours
  Living/dead: 41.3
[1]; donor three, urea 0.2 mol/liter, 17 hours
  Living/dead: 30.2
[1]; donor three, urea 0.3 mol/liter, 17 hours
  Living/dead: 9
[1]; donor three, urea 0.4 mol/liter, 17 hours
  Living/dead: 0.2
[1]; donor three, urea 0.8 mol/liter, 17 hours
  Living/dead: 0.02
[1]; donor three, urea 1.6 mol/liter, 17 hours, 0 = exclusively dead cells
  Living/dead: 0
[1]; donor two, urea 0.05 mol/liter, 17 hours
  Living/dead: 15.9
[1]; donor two, urea 0.1 mol/liter, 17 hours
  Living/dead: 1.7
[1]; donor two, urea 0.2 mol/liter, 17 hours
  Living/dead: 6.6
[1]; donor two, urea 0.4 mol/liter, 17 hours
  Living/dead: 1
[1]; donor two, urea 0.8 mol/liter, 17 hours
  Living/dead: 0.1
[1]; donor two, urea 1.6 mol/liter, 17 hours
  Living/dead: 0.06
[1]; from a urea concentration of 0.4 mol/liter, 17 hours, regardless of the donor
  dead versus living cells in the PBMC cultures: more dead than living cells
[1]; urea 0 to 0.2 mol/liter, 17 hours
  ratio of living to dead cells compared to the untreated cells: no significant reduction
[1]; urea concentrations above 0.3 mol/liter, 17 hours
  total number of cells (cytolytic effect): significant reduction in the total number of cells
[2]; urea 0.05 mol/liter
  IFN-γ secretion from PBMCs: 26.2 Spots/2 × 10^6 cells
[2]; urea 0.1 mol/liter
  IFN-γ secretion from PBMCs: 29.6 Spots/2 × 10^6 cells
[2]; urea 0.2 mol/liter
  IFN-γ secretion from PBMCs: 26.4 Spots/2 × 10^6 cells
[2]; urea 0.3 mol/liter
  IFN-γ secretion from PBMCs: 11.0 Spots/2 × 10^6 cells
[2]; urea 0.4 mol/liter
  IFN-γ secretion from PBMCs: 18.2 Spots/2 × 10^6 cells
[2]; urea 0.8 mol/liter
  IFN-γ secretion from PBMCs: 14.6 Spots/2 × 10^6 cells
[2]; urea 1.6 mol/liter
  IFN-γ secretion from PBMCs: 13.4 Spots/2 × 10^6 cells
[2]; urea 0.05 to 1.6 mol/liter
  release of IFN-γ from cultures of peripheral blood mononuclear cells: no significantly increased release of IFN-γ
[3]
  toxicity of the urea contained in the injection solution for the experimental animal: non-toxic
